Measurements: patent US20170176446A1, “Methods for Determining the Oncogenic Condition of Cell, Uses Thereof, and Methods for Treating Cancer” (INSERM (INSTITUT NATIONAL DE LA SANTE ET DE LA RECHERCHE …, priority 2009, published 2017)

How the values were obtained:
MCF7 cells = experiment: OCDO production by MCF7 cells incubated with [14C]CE, thin-layer chromatography; format: cell-based, human; details: concentration in μM in parentheses after each molecule; control = 100
Description: For assays 1 to 5 and in some of the examples given later in this patent application, MCF7 tumor cells, which originate from the American Tissue Culture Collection (ATCC), were used. […] It is desired to study the activity of ChEH in […] cells by silica thin-layer chromatography. The compounds that it is desired to visualize are the CE and CT compounds defined above. In order to visualize the spots corresponding to CE and CT on a chromatography plate, ^14C-labeled CE and CT compounds were synthesized.
In order to be used in assays 1 to 5 which follow, the cells are seeded into 6-well plates at a density of 80 000 cells in a volume of 2 ml. […] After the incubation time desired for the assay, the medium is collected, the cells are washed with cold PBS (phosphate buffer) (2 ml per well) which is pooled with the medium. The cells are then scraped into cold PBS (1 ml for 3 wells); the wells are again rinsed with cold PBS (1 ml for 3 wells). The cell suspension obtained is centrifuged at 1000 rpm for 5 min at 4° C. […] Throughout the rest of this description, the vehicle solvent used is the same as that defined above.
The aqueous and organic radioactivities are counted. The organic phases are brought to dryness under argon. The residue is resuspended in 60 μl of ethanol and then deposited, in a proportion of 20 μl per lane, on to the glass-backed silica plates (Whatman LK-6-DF, 20×20), which are used in the various assays (these plates having been preheated at 100° C. for 1 hour). The migration solvent used is ethyl acetate. The chromatography plates are placed in contact with a “phosphor-screen” plate in a cassette overnight. […] In order to evaluate the more or less dense nature of the spots obtained on the plates, the radioactivity is quantified by densitometry with the “Imagequant”™ computer program.
Generally, in order to establish the percentages of OCDO inhibition from the thin-layer chromatography (TLC) plates obtained as in assay 2, the radioactive metabolites are identified and quantified on the basis of said plates using a europium-sensitive plate of GP Phosphor screen type (GE Healthcare) and a Storm 840 phosphorimagor (GE Healthcare). The proportion of radiolabeled oxysterols is determined on the autoradiogram obtained by densitometry using the Image Quant 5.2 software. The percentage is calculated on the basis of the ratio between the amount of oxysterols quantified divided by the sum of the amounts of oxysterols (CEE+CE+CT+OCDO). Since the CEE (CE ester) originates exclusively from the CE, the percentage CE is calculated on the basis of the ratio (CE+CEE)/(CE+CEE+CT+OCDO).
Assay 2 given above was therefore completed by measuring the amounts of the products present when the MCF7 tumor cells are incubated as indicated in detail in assay 2.
In order to establish that the link that exists between, on the one hand, the ability of various compounds to inhibit OCDO in an MCF7 tumor cell and, on the other hand, their quality as a ChEH inhibitor, is well-founded, the inhibition coefficients Ki for ChEH relating to a certain number of products was calculated and the production of OCDO by MCF7 cells after incubation of the cells with the same products was measured according to the protocol defined in assay 2 of the present patent application.

ChEH [1] = molecular target: T1, ChEH (Rattus norvegicus, UniProt Q9JJ46); experiment: Determination of the Ki for ChEH on rat liver microsome proteins (Dixon method); format: biochemical; details: 150 μg rat liver microsome proteins, [14C]CEα
T1 construct: 150 μg of rat liver microsome proteins are incubated; from tissue; host or cells: rat liver microsomes
T1 sequence (Q9JJ46 1-230): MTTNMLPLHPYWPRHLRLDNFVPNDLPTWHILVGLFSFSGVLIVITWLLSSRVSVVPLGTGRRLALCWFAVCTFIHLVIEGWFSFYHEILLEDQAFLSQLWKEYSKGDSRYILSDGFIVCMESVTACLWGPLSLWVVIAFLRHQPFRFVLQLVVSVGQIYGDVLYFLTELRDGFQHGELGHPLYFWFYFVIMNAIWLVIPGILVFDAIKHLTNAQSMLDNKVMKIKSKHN

TS/A cells = experiment: Tumor size of TS/A tumors implanted in BALB/c mice, intratumoral treatment; format: in vivo; details: DDA 10 μM, 100 μl intratumorally once a day
Protocol: A cell culture of TS/A cells was first performed. These TS/A cells are mouse mammary adenocarcinomas (see Nanni P et al., Clin. Exp. Metastasis, 1983 October-December; 1(4): 373-80). The cells are cultured, at 37° C. under 5% CO2, in a DMEM medium supplemented with 2 g/liter of sodium carbonate, 1.2 mM of glutamine (pH 7.4 at 23° C.), 5% of fetal bovine serum (Gibco) and 2.5 ml of antibiotics per liter of medium (penicillin/streptomycin).
The TS/A cells are recovered with trypsin, washed twice and suspended in PBS buffer. The TS/A cells (approximately 4×10^6 […] cells/0.1 ml) are then injected subcutaneously into the flank of 6-week-old female BALB/c mice (supplied by Charles River). […] The animals (10 mice per group) are monitored regularly for tumor development. The volume of the tumors is calculated according to the following formula: L×l^2×0.5 (L is the length and l is the width of the tumor). The experiment was reproduced twice. The results are given in FIG. 18 (the arrow indicates the beginning of the treatment).

ChEH [2] = molecular target: T2, ChEH (Homo sapiens, UniProt Q15125); experiment: ChEH activity on MCF7 cell lysate (homogenate); format: biochemical; details: 150 μg of proteins, read-out: (IC50)homogenate, ChEH inhibition
T2 construct: MCF7 tumor cells, which originate from the American Tissue Culture Collection (ATCC), were used; host or cells: MCF7
Protocol: Moreover, a study of this inhibition on homogenate was also carried out. The protocol is as follows: the MCF7 cells are detached with trypsin and taken up with RPMI medium containing 5% FBS. The cell suspension obtained (60 million cells) is centrifuged, washed with cold PBS and resuspended in 1 ml of […] buffer (pH=7.4; 150 mM KCl). The cells are lyzed by means of five freezing/thawing (liquid nitrogen/37° C.) cycles. The solution is centrifuged at 1200 rpm at 4° C. for 10 minutes. The supernatant is recovered and the amount of proteins is determined by the Bradford method. The measurement of the ChEH activity on MCF7 cell lysate is carried out as follows: the enzymatic activity is measured on 150 μg of proteins in a final volume of 150 μl containing […] of ChEH buffer (Tris-HCl, pH 7.4, 150 mM KCl) and 15 μl of MCF7 proteins.

ChEH [3] = molecular target: T2, ChEH; experiment: Inhibition of ChEH activity in MCF7 cells (TLC of [14C]CE conversion); format: cell-based; details: 48 hours, MCF7 cells
Protocol: For this experiment, an aminoalkyl sterol included in French patent 2 838 741 (and also see: de Medina et al., J Med Chem: 2009, vol. 52, No. 23, p. 7765-7777), having the formula: 6-N-[2-(3H-imidazol-4-yl)ethylamino]cholestane-3β,5α-diol (DDA), was chosen. […]
A thin-layer chromatography was carried out, the plate of which has been reproduced in FIG. 23. On this plate, the incubation is carried out, for lane 1, with [^14C]CE; for lane 2, with [^14C]CT; for lane 3, with the vehicle solvent, which is the same as that used for assays 1 to 5; for lane 4, with [14C]CE and 0.1 μM of the aminoalkyl sterol; and for lane 5, with [^14C]CE and a concentration of 1 μM of the aminoalkyl sterol.

OCDO = OCDO content of TS/A tumors by GC/MS; format: in vivo, mice; details: DDA 10 μM, 100 μl intratumorally once a day
Protocol: 5 volumes (relative to the mass removed) of buffer (50 mM Tris-HCl, 150 mM KCl, pH=7.4) are added. The tumors are ground and the homogenates are centrifuged for 5 minutes at 2500 rpm at 4° C. […] After centrifugation (to separate the phases), the organic phase is recovered. The organic phase is evaporated to dryness and then the residue is taken up with 0.5 ml of chloroform. The organic extracts are filtered on 0.5 ml silica cartridges. The polar sterols are eluted sequentially:
1) 0.5 ml of a hexane/chloroform mixture (1/1), 2) 0.5 ml of chloroform, 3) 0.5 ml of ethyl acetate and methanol.
The ethyl acetate fractions are evaporated, silylated (50 μl 1/1 acetonitrile/BSTFA) and then analyzed by GC/MS (2 μl) according to the conditions described above.

T2 sequence (Q15125 whole entry): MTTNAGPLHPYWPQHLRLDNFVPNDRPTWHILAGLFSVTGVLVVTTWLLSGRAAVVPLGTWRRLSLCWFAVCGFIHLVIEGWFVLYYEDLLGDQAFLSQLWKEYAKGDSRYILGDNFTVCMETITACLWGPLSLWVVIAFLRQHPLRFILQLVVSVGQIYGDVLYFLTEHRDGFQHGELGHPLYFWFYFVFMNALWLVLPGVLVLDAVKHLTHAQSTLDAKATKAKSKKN

- Ki (ChEH [1]): 1250 ± 6 nM
- IC50 (ChEH [2]): 11200 nM
- inhibition of ChEH (ChEH [3]; 0.1 and 1 μM, dependent on the concentration): causes an inhibition of ChEH
- IC50 (ChEH [3]; [14C]CE 0.6 μM): 600 nM
SMILES: CC(C)CCC[C@@H](C)[C@H]1CC[C@H]2[C@@H]3C[C@@H](NCCc4c[nH]cn4)[C@@]4(O)C[C@@H](O)CC[C@]4(C)[C@H]3CC[C@]12C [DDA, 6-N-[2-(3H-imidazol-4-yl)ethylamino]cholestane-3β,5α-diol]
- OCDO production by MCF-7 (% control) (MCF7 cells): <1 % control
- Tumor size (% control) (TS/A cells; Day 28): 65.4 ± 7 % control
- Tumor size (% control) (TS/A cells; Day 37): 28.3 ± 8 % control
- OCDO (% control) (OCDO; Day 28): 14.5 ± 3 % control
- OCDO (% control) (OCDO; Day 37): 4.5 ± 3 % control
